Test results from US20240254134A1, “AGELASTATIN A DERIVATIVES AND RELATED METHODS” (ROMO, Daniel, priority 2021, published 2024).
Like-named read-outs stand apart in the source and are kept apart here. One block for each compound: values may come before it.

Tests used:
[1] = Stability of 7-hydroxy AglA derivatives (1H NMR); format: physicochemical
[2] = test system: HeLa cells; details: cited from earlier work
[3] = test system: Caco2; test: Cancer cell line cytotoxicity assay (MTS or resazurin, 72 h); format: cell-based; details: Caco2, 72 h incubation
Description: (§1) Cancer Cell Line Cytotoxicity Assays Cancer cell lines (MDA-MB-231, MCF7, Caco2, or U87) were plated on 96-well plates at 2,000 cells per well and incubated for 24 h at 37° C., 5% CO2. AglA and derivatives were dissolved in DMSO, diluted to the appropriate concentrations, and the compound solutions or equivalent concentration of solvent (vehicle) were added to the plate and incubated for 72 h at 37° C., 5% CO2. Following the manufacturer protocol, 20 μL of CellTiter 96® AQueous One Solution Cell Proliferation Assay (MTS, Promega), or CellTiter-Blue@ Cell Viability Assay (resazurin, Promega) was added. The plate was allowed to develop for 1-4 h at 37° C., 5% CO2 and evaluated at 490 nm on an AccuSkan Go (Fisher Scientific) or at 560 nm excitation and 590 nm emission on a VarioSkan Lux Multimode Microplate Reader (Fisher Scientific).

[4] = test system: MCF7; test: as above; format: cell-based; details: MCF7, 72 h incubation
Description: as §1

[5] = test system: MDA-MB-231; test: as above; format: cell-based; details: MDA-MB-231, 72 h incubation
Description: as §1

[6] = test system: U87; test: as above; format: cell-based; details: glioblastoma cell line U87, 72 h incubation
Description: as §1

[7] = Stability studies of pyrrole-derived carbinolamines 18a-18c (1H NMR); format: physicochemical; details: in CD3OD
Description: We synthesized pyrrole carboxylic amides 17a-c to study the equilibrium between the corresponding carbinolamines and pyrrolo ketones (FIG. 5). Reduction of 2-azidocyclopentanone and condensation with pyrrole-1H-carboxylic acid gave amide 17b. Upon treatment of ketone 17b with Et3N, cyclization gave the corresponding carbinolamine 18b in 73% yield (>19:1 dr, 600 MHz ^1H NMR). […] When resubjected to NEt3/CH2Cl2 at ambient temperature (22° C.) for 16 h, only a small amount of the ring-opened keto pyrrole 17b was generated leading to an equilibrium ratio of 11:1 (18b/17b) favoring the cyclized form as judged by ^1H NMR. […] In contrast, the 5-bromo pyrrole analog 17a, that most closely mimics the targeted 7-hydroxy AglA, disfavored the closed form 18a.
To a stirred solution of carbinolamine 18b (3.0 mg, 0.016 mmol, 1.0 equiv) in dichloromethane (0.32 mL) was added triethylamine (6.6 μl, 0.047 mmol, 3.0 equiv).
To a stirred solution of carbinolamine 18c (1.2 mg, 0.0044 mmol, 1.0 equiv) was added a solution of triethylamine in dichloromethane (0.1 mL, the solution was made by mixing 19 μl triethylamine and 1.0 mL dichloromethane).
To a 1.0 dram vial was charged 17a (2.7 mg, 0.01 mmol, 1.0 equiv) and a solution of triethylamine in dichloromethane (0.23 mL, […], 3.0 equiv. The solution was made by mixing 19 μl triethylamine and 1.0 mL dichloromethane).
In a 1.5 dram vial, carbinolamine 18b (2.6 mg, 0.014 mmol, 1.0 equiv) was dissolved in THF (0.14 mL) and MeOH (0.14 mL) and the mixture was cooled to 0° C. N-bromosuccinamide (2.5 mg, 0.0142 mmol, 1.05 equiv) was added and the reaction was allowed to warm up to ambient temperature (22° C.). After stirring for 4 h, TLC indicated there was no more starting material and the reaction mixture was concentrated and purified by column chromatography on silica (MeOH/CH2Cl2, 0 to 20%) to give a mixture of 18a/18c/17a (2.4 mg, 65%) in 1:0.6:0.44 ratio. This mixture was monitored by NMR to probe the stability of the 5-bromo derivative in CD3OD. […]

[8] = Cancer cell line cytotoxicity assay (MTS or resazurin, 72 h); format: cell-based; details: human
Description: as §1

[9] = test system: Cancer cell lines (MDA-MB-231, MCF7, Caco2, or U87); test: Cancer cell line cytotoxicity, span over all cell lines studied; format: cell-based; details: Homo sapiens; all cell lines studied except Caco-2; read-out: activity against all cell lines studied (span of values)
Description: as §1

[10] = molecular target: osteopontin (OPN, encoded by SPP1) (Homo sapiens, UniProt P10451); details: cited from earlier work
Chain of osteopontin (OPN, encoded by SPP1) (P10451 17-314, species assumed): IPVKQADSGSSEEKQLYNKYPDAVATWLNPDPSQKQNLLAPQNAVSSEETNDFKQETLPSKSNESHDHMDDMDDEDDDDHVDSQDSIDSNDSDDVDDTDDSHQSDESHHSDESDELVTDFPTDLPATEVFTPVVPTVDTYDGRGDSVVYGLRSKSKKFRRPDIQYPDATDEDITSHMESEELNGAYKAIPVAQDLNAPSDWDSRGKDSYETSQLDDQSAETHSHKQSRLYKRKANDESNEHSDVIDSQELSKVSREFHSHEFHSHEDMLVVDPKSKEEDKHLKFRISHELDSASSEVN

[11] = test system: glycogen synthase kinase-3β; details: cited from earlier work
Chain of glycogen synthase kinase-3β (P49841 whole entry): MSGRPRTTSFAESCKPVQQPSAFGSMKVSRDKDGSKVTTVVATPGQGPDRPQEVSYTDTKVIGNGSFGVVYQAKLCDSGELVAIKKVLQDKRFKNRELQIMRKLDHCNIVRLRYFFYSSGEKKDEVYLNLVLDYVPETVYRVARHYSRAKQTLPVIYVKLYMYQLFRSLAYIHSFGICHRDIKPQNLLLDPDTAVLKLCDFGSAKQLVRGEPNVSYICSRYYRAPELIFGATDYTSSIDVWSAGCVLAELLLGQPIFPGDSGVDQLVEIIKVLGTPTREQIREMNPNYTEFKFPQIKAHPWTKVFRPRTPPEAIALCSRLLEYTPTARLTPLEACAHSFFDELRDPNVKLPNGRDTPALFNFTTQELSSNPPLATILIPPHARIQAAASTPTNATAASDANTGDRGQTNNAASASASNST

[12] = test system: peptidyl transfer center (PTC) of the ribosome; details: HeLa cells; cited from earlier work

Compound: 7-hydroxy AglA [7-OH AglA]
stability (ring-closed carbinolamine vs ring opened ketopyrrole tautomer) [1]: instability | stability (ring-closed carbinolamine vs ring opened ketopyrrole tautomer) ([1]; listed as 7-hydroxy AglA): unstable

Compound: 13-des-bromo AglA
drop in potency compared to AglA [2]: ~500 X

Compound: CO[C@@]12C[C@H]3OC(c4ccc(Br)[nH]4)=N[C@H]3[C@@H]1NC(=O)N2C [26a]
cytotoxicity EC50 [3]: no activity | cytotoxicity EC50 [4]: no activity | cytotoxicity EC50 [5]: no activity | cytotoxicity EC50 [6]: no activity

Compound: CN1C(=O)N[C@H]2[C@@H]3NC(=O)c4cccn4[C@]3(O)C[C@]21O (racemic) [compound 24, 7-hydroxy-13-des-bromo AglA]
EC50 at 72 h ([8]; Caco2 cells, Caco2, 72 h incubation): > 250 µM | EC50 at 72 h ([8]; MCF7 cells, MCF7, 72 h incubation): > 250 µM | EC50 at 72 h ([8]; MDA-MB-231 cells, MDA-MB-231, 72 h incubation): > 250 µM | EC50 at 72 h ([8]; U87 glioblastoma cells, glioblastoma cell line U87, 72 h incubation): 171 ± 8 µM | stability by 1H NMR ([1]; stored in CD3OD or DMSO-d6 at ambient temperature (22° C.) for 7 days): quite stable

Compound: CN1C(=O)N[C@H]2[C@@H]3NC(=O)c4ccc([N+](=O)[O-])n4[C@@H]3C[C@]21O [compound 37, 13-nitro AglA]
EC50 [9]: 1.16 to 35.4 µM

Compound: Agelastatin A [AglA]
inhibition of osteopontin [10]: inhibition of osteopontin | inhibition of expression of glycogen synthase kinase-3β [11]: inhibits the expression | binding to the peptidyl transfer center of the ribosome [12]: binds to the peptidyl transfer center (PTC) of the ribosome

More lines, now with the values ahead:

stability of carbinolamine under neutral conditions [7]: stable under neutral conditions
Compound: O=C1NC2CCCC2(O)n2cc(Br)cc21 (stereo not shown) [18c]

stability of carbinolamine under neutral conditions [7]: opened rapidly in CD3OD
Compound: O=C1NC2CCCC2(O)n2c(Br)ccc21 (stereo not shown) [18a]

stability of carbinolamine under neutral conditions [7]: stable in CD3OD for several days
Compound: O=C1NC2CCCC2(O)n2cccc21 (stereo not shown) [18b]
